# Measurements as given in article PMC11904033, “Lanatoside C activates the E3 ligase STUB1 to inhibit FOXP3 transcriptional activity and promote antitumor immunity” (EMBO Molecular Medicine, 2025).
# How the values were obtained:
# STUB1 = target: T1, STUB1 (Homo sapiens, UniProt Q9UNE7); test: thermal shift in […] lysate (immunoblot); DARTS; assay type: biochemical; conditions: 10 uM Lac for 30 min in thermal shift; 30 uM Lac for 3 h in DARTS
# T1 construct: full length (303 residues), HA-tagged, ectopically expressed in 293T cells, lysate
# T1 sequence (Q9UNE7 1-303): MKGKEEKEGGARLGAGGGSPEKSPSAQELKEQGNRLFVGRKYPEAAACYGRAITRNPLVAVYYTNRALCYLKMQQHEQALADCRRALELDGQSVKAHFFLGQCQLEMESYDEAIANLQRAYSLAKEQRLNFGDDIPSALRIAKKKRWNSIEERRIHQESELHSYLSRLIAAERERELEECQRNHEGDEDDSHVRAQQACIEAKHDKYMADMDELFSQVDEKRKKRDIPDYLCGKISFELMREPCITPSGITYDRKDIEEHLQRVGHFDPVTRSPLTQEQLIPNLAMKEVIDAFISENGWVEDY
# [1] = target: T2, STUB1 TPR domain (STUB1 1-130) (Homo sapiens, UniProt Q9UNE7); test: isothermal titration calorimetry; assay type: binding; conditions: read-out: Ka (converted)
# T2 construct: N-terminal TPR domain, residues 1-130; ITC: His-tagged from E. coli BL21 (pET-T7-STUB1 1-130-His); thermal shift and point mutants: 1-130-3xFlag6xHis expressed in 293T cells
# T2 sequence (Q9UNE7 1-130): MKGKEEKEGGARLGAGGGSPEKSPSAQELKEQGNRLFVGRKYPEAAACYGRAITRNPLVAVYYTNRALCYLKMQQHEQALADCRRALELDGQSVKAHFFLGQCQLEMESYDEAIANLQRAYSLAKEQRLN
compound,measurement,setting,value
CC(=O)O[C@H]1C[C@H](O[C@H]2[C@@H](O)C[C@H](O[C@H]3[C@@H](O)C[C@H](O[C@H]4CC[C@@]5(C)[C@H](CC[C@@H]6[C@@H]5C[C@@H](O)[C@]5(C)[C@@H](C7=CC(=O)OC7)CC[C@]65O)C4)O[C@@H]3C)O[C@@H]2C)O[C@H](C)[C@H]1O[C@@H]1O[C@H](CO)[C@@H](O)[C@H](O)[C@H]1O [Lanatoside C],thermal shift,STUB1,Lac directly bound STUB1 as revealed in the thermal shift assay
same,Kd,[1],7.69 µM
